± gives the standard deviation of the averaged measurements.
What was measured:
HS-PSS [1] = experiment: drug sensitivity score (DSS, CellTiter-Glo viability, 72 h) (DSS (dimensionless)); higher = more sensitive; extreme values may be limits of the assay
Outline: (§1)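 Viability of MPNST cell lines and primary human Schwann cells was read as CellTiter-Glo ATP luminescence after 72 h at 37 °C, 5% CO2, in 384-well plates seeded with 750–1000 cells per well. Each compound had been preprinted at five concentrations in 10-fold steps. Signals were scaled between vehicle and positive-control wells, duplicates averaged where present, and fitted with four-parameter logistic curves. Drug sensitivity score and relative IC50 (censored at the top concentration) come from those fits, and percent inhibition is taken at the top concentration.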

HS-Sch-2 [2] = experiment: as above
Outline: as §1

[3] = test system: HSC1 (primary human Schwann cells); experiment: as above
Outline: as §1

[4] = test system: HSC2 (primary human Schwann cells); experiment: as above
Outline: as §1

S1507-2 [5] = experiment: as above
Outline: as §1

S462 [6] = experiment: as above
Outline: as §1

ST8814 [7] = experiment: as above
Outline: as §1

STS26T [8] = experiment: as above
Outline: as §1

YST-1 [9] = experiment: as above
Outline: as §1

HS-PSS [10] = experiment: drug sensitivity score (DSS, CellTox-Green cytotoxicity, 72 h) (DSS (dimensionless)); higher = more cytotoxic; extreme values may be limits of the assay
Outline: (§2)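 MPNST cell lines and primary human Schwann cells were grown for 72 h at 37 °C in 384-well plates containing five 10-fold compound dilutions. CellTox-Green, added before seeding at a final 1:1000 dilution, gave fluorescence from DNA released by disrupted cells, and signals were scaled to vehicle and positive-control wells. Curves were fitted with a four-parameter logistic model. Drug sensitivity score and relative IC50 come from these fits, with IC50 censored at the top concentration.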

[11] = test system: HSC1 (primary human Schwann cells); experiment: as above
Outline: as §2

[12] = test system: HSC2 (primary human Schwann cells); experiment: as above
Outline: as §2

S1507-2 [13] = experiment: as above
Outline: as §2

ST8814 [14] = experiment: as above
Outline: as §2

STS26T [15] = experiment: as above
Outline: as §2

HS-PSS [16] = experiment: % inhibition of CellTiter-Glo viability at highest tested concentration (72 h), relative to DMSO and benzethonium chloride controls; higher = more inhibition
Outline: as §1

HS-Sch-2 [17] = experiment: as above
Outline: as §1

[18] = test system: HSC1 (primary human Schwann cells); experiment: as above
Outline: as §1

[19] = test system: HSC2 (primary human Schwann cells); experiment: as above
Outline: as §1

S1507-2 [20] = experiment: as above
Outline: as §1

S462 [21] = experiment: as above
Outline: as §1

ST8814 [22] = experiment: as above
Outline: as §1

STS26T [23] = experiment: as above
Outline: as §1

YST-1 [24] = experiment: as above
Outline: as §1

Structure (SMILES) | drug sensitivity score (HS-PSS [1]) | drug sensitivity score (HS-Sch-2 [2]) | drug sensitivity score [3] | drug sensitivity score [4] | drug sensitivity score (S1507-2 [5]) | drug sensitivity score (S462 [6]) | drug sensitivity score (ST8814 [7]) | drug sensitivity score (STS26T [8]) | drug sensitivity score (YST-1 [9]) | drug sensitivity score (HS-PSS [10]) | drug sensitivity score [11] | drug sensitivity score [12] | drug sensitivity score (S1507-2 [13]) | drug sensitivity score (ST8814 [14]) | drug sensitivity score (STS26T [15]) | % inhibition (HS-PSS [16]) | % inhibition (HS-Sch-2 [17]) | % inhibition [18] | % inhibition [19] | % inhibition (S1507-2 [20]) | % inhibition (S462 [21]) | % inhibition (ST8814 [22]) | % inhibition (STS26T [23]) | % inhibition (YST-1 [24])
COc1c(C)cnc(Cn2cnc3c(Cl)nc(N)nc32)c1C [BIIB021] (max concentration tested 10000 nM) | 14.4 | 24.5 | 16.2 | 17.6 | 18.1 ± 1.3 | 20.083 ± 0.0076 | 17.8 | 16.9 | 15 | 5.44 | 20 | 19.7 | 15.8 ± 2.9 | 9.2 | 11.8 | 88% | 99.9% | 96.4% | 96.9% | 98.34 ± 0.36% | 97 ± 1.1% | 96.1% | 90.3% | 84.3%
COc1cc(F)c(F)c(Nc2ccc(I)cc2F)c1NS(=O)(=O)C1(C[C@H](O)CO)CC1 [Refametinib] (max concentration tested 10000 nM) | 5.39 | 6.81 | 8.11 | 10.5 | 13.8 ± 1.3 | 14.9 ± 1.8 | 14.8 | 8.43 | 0.24 | 0.98 | 0 | 0.276 | 11.1 ± 3.6 | 8.62 | 1.17 | 63.2% | 75.5% | 69.2% | 69% | 86.7 ± 4.6% | 94.83 ± 0.55% | 99.1% | 53% | 17.5%
CC1(C)NC(=O)N(c2ccc([N+](=O)[O-])c(C(F)(F)F)c2)C1=O [Nilutamide] (max concentration tested 10000 nM) | 0 | 0.51 | 0.162 | 0 | 0 | 0 | 0 | 0 | 0 | 0 | 0 | 0 | 0 | 0 | 0 | 8.31% | 18.2% | 9.41% | 9.17% | 7.48 ± 3.5% | 6.29 ± 2.4% | -1.67% | 7.4% | -2.31%
CC(C)c1c(C(=O)Nc2ccccc2)c(-c2ccccc2)c(-c2ccc(F)cc2)n1CC[C@@H](O)C[C@@H](O)CC(=O)O [Atorvastatin] (max concentration tested 10000 nM) | 6.74 | 6.02 | 16.6 | 19.7 | 2.53 ± 0.48 | 9.93 ± 0.43 | 3.73 | 5.4 | 6.47 | 0 | 17.1 | 19.6 | 1.46 ± 2.1 | 2.32 | 2.9 | 75.3% | 80.5% | 97.5% | 101% | 41.9 ± 8% | 96.5 ± 1.1% | 55.2% | 69.6% | 89.5%
Cc1ccc(-c2cc(C(F)(F)F)nn2-c2ccc(S(N)(=O)=O)cc2)cc1 [Celecoxib] (max concentration tested 10000 nM) | 0 | 0 | 0.156 | 0 | 0 | 0 | 0 | 0 | 0 | 0 | 0 | 0 | 0 | 0 | 0 | -9.36% | -1.87% | 11.3% | 3.55% | -6.68 ± 15% | 0.832 ± 4.7% | -6.53% | -2% | 4.7%
Oc1nc(-c2ccc(C(F)(F)F)cc2)nc2c1CSCC2 [XAV-939] (max concentration tested 10000 nM) | 1.55 | 0 | 6.05 | 4.89 | 2.76 ± 0.27 | 0 | 0 | 0.217 | 2.41 | 0 | 0 | 0 | 1.83 ± 2.6 | 0 | 0 | 23% | 7.73% | 37% | 27.6% | 33.8 ± 7.3% | 6.97 ± 4% | 0.935% | 16.5% | 23.1%
CC[C@H](CO)Nc1nc(NCc2ccccc2)c2ncn(C(C)C)c2n1 [Seliciclib] (max concentration tested 10000 nM) | 2.39 | 0.52 | 0.597 | 1.23 | 0 | 1.26 ± 0.44 | 0 | 0.759 | 0 | 0.1 | 0 | 0 | 0 | 0 | 0 | 30.8% | 22.6% | 22.5% | 34.7% | -2.22 ± 4.7% | 32.2 ± 3.6% | 5.24% | 23.2% | 5.74%
C[C@@]1(C(=O)Nc2ccc(F)nc2)CCCN1c1nc(Nc2cc(C3CC3)n[nH]2)c2cccn2n1 (max concentration tested 10000 nM) | 7.91 | 9.41 | 14.5 | 16.2 | 14.5 ± 2.5 | 15.5 ± 0.72 | 13.1 | 8.67 | 25.8 | 3.23 | 7.13 | 9.9 | 9.5 ± 0.59 | 13 | 11.7 | 87.3% | 89.1% | 94.8% | 96.7% | 99.4 ± 1.5% | 92.1 ± 1.2% | 93.2% | 64% | 74.3%
O=C(O)CCCc1ccc(N(CCCl)CCCl)cc1 [Chlorambucil] (max concentration tested 10000 nM) | 0 | 0 | 0.621 | 0.471 | 0 | 0 | 0 | 0 | 0.78 | 0 | 0 | 0 | 0 | 0 | 0 | 3.62% | 1.59% | 24.7% | 21.9% | -14.4 ± 0.28% | -2.04 ± 1.9% | -14.6% | -3.28% | 18.1%
CS(=O)(=O)OCCCCOS(C)(=O)=O [Busulfan] (max concentration tested 100000 nM) | 0 | 0.72 | 0 | 0 | 0 | 0 | 0 | 0 | 2.32 | 0 | 0 | 0 | 0 | 0 | 0 | 0.44% | 17.2% | 8.68% | -3.16% | -7.23 ± 18% | -16.5 ± 19% | 0.917% | 3.36% | 22.8%
CN(C)c1nc(N(C)C)nc(N(C)C)n1 [Altretamine] (max concentration tested 10000 nM) | 0 | 0 | 0 | 0 | 0 | 0 | 0 | 0 | 0 | 0 | 0 | 0 | 0.0018 ± 0.0026 | 0 | 0 | -1.71% | -1.37% | 6.31% | -0.459% | -7.42 ± 0.53% | -12.7 ± 1.5% | -6.95% | 5.66% | 9.76%
O=C(Nc1c[nH]nc1-c1nc2ccc(CN3CCOCC3)cc2[nH]1)NC1CC1 [AT9283] (max concentration tested 1000 nM) | 3.34 | 4.99 | 10.7 | 10.5 | 10.9 ± 1.9 | 8.755 ± 0.034 | 13 | 5.9 | 6.27 | 0 | 4.98 | 5.2 | 8.28 ± 1.4 | 15.5 | 8.27 | 40.9% | 93.4% | 83.1% | 83% | 95.6 ± 4.4% | 84.48 ± 0.23% | 92.4% | 66.9% | 67.4%
CO[C@@H](C(=O)N1Cc2[nH]nc(NC(=O)c3ccc(N4CCN(C)CC4)cc3)c2C1)c1ccccc1 [Danusertib] (max concentration tested 10000 nM) | 8.49 | 11.1 | 11.4 | 10.4 | 8.76 ± 2 | 13.9 ± 0.31 | 8.83 | 5.54 | 12.9 | 2.75 | 6.43 | 7.05 | 1.16 ± 0.24 | 6.94 | 3.88 | 80.7% | 76.3% | 88.1% | 90.9% | 66.7 ± 10% | 88.7 ± 1.7% | 85.7% | 52.5% | 46.4%
O=C1CN2Cc3c(ccc(Cl)c3Cl)N=C2N1 [Anagrelide] (max concentration tested 10000 nM) | 0 | 8.23 | 1.41 | 11.1 | 0 | 0 | 0.934 | 0 | 0 | 0 | 0 | 0.367 | 0 | 0 | 0 | 4.14% | 38.7% | 17.3% | 51.1% | -1.32 ± 1.6% | -5.96 ± 0.63% | 17.3% | 1.1% | 2.83%
